# Data published in patent US7906484B2, “Complex for transferring an anionic substance into a cell” (Alnylam Pharmaceuticals, Inc., priority 2006, dated 2011).
# Assays:
# [1] = system: E6AP mRNA in HCT116 cells; experiment: siRNA AD-8724 delivery into HCT116 cells, inhibition of E6AP mRNA expression by bDNA assay; assay type: cell-based, human
# Protocol: All further experiments were carried out using HCT116 cells and inhibition of E6AP expression as readout.
# HCT116-cells were obtained from the American Type Culture Collection (ATCC# CCL-247). They were cultured in McCoy's 5A medium (Biochrom AG, Berlin, Germany, Cat.# F1015) containing 10% fetal calf serum (FCS; Biochrom AG, Berlin, Germany, Cat.# S0115) and 2 mM L-Glutamin (Biochrom AG, Berlin, Germany, Cat.#: K0283) (standard growth medium). For incubation with peptide/siRNA, complexes, the medium was replaced by serum-free McCoy's 5A medium containing 2 mM L-Glutamin (serum free medium). After incubation with complexes for 4 h, McCoy's 5A medium containing 30% fetal calf serum and 2 mM L-Glutamin (triple FCS medium) was added to restore an overall 10% FCS in the medium.
# The E6AP-specific siRNA denoted AD-8724 herein was used, having the following sequences: antisense strand: 5′-ucacauuccacguuaggugTsT-3′ (SEQ ID NO:51), sense strand 5′-caccuaacguggaaugugaTsT-3′; (SEQ ID NO:52; lower case letters: ribonucleotides; s: phosphorothioate backbone linkage). As a negative control, an siRNA specific for eGFP, denoted AD-5107 herein, was used, having the following sequences: antisense strand: 5′-aagucgugcugcuucauguggOMesuOMesc-3′ (SEQ ID NO:19), sense strand 5′-[…]-3′ (SEQ ID NO:18; lower case letters: ribonucleotides; subscript OMe: 2′-O-methyl-ribonucleotide; s: phosphorothioate backbone linkage). In addition to the non-specific control siRNA AD-5107, mock transfected cells treated with standard growth medium only were used as negative controls. As a positive control, AD-8724 was transfected into the cells using Lipofectamine2000™ (Invitrogen, Karlsruhe, Germany, Cat. No. 11668-019). As a further control, AD-5107 was transfected into cells using Lipofectamine2000™. All assays were performed in quadruplicates.
# SiRNA/peptide complexes were prepared by mixing a solution of the siRNA in deionized water with a solution of the peptide in deionized water at the appropriate concentrations to give the desired ratio of siRNA/peptide at the desired concentration of the complex. The mixture was incubated at room temperature for 30 min and kept at 4° C. until use, and used within 24 h.
# For transfections with siRNA/peptide complexes, 1.5×10^5 HCT116-cells per well in 150 μl standard growth medium were seeded into polystyrene 96 well plates and grown for 24 h at 37° C. in an atmosphere containing 5% CO2. The medium was removed by aspiration, and 90 μl serum-free medium and 10 μl of siRNA/peptide complex solution were added. Cells were incubated for 4 h at 37° C./5% CO2, 50 μl triple FCS medium were added, and the cells incubated for another 20 h under identical conditions. Subsequently, E6AP mRNA content was determined as described below.
# For Lipofectamine2000™ transfections, 0.5 μl Lipofectamine2000™ were mixed with 12 μl OptiMem™ (Invitrogen, Karlsruhe, Germany, Cat. No. 11058-021) and incubated for 15 min. 1 μl of a 5 μM solution of the respective siRNA in PBS (Biochrom AG, Berlin, Germany, Cat-No: L182-05) were added to 11.5 μl OptiMeM™, mixed with the Lipofectamine2000™/OptiMem™ solution, and incubated for further 15 min. 1.5×10^5 HCT116-cells per well in 150 μl standard growth medium were grown for 24 h as described above, the growth medium removed from the cells by aspiration, and 75 μl fresh standard growth medium and the 25 μl of the siRNA/Lipofectamine2000™ mix were added to the well, to give a final siRNA concentration of 50 nM. The cells were incubated for 24 h at 37° C./5% CO2 and E6AP mRNA concentration determined.
# The QuantiGene™ bDNA-kit from Panomics, Inc., Fremont, USA, was used according to manufacturer's instructions. Briefly, cells were lysed by adding 50 μl of Lysis Mixture (from QuantiGene bDNA-kit) to each well and incubation at 53° C. for 1 h. […]
# eGFP-mRNA = experiment: Influence of peptide/siRNA ratio on siRNA activity in HCT116 cells; assay type: cell-based; settings: 250 nM siRNA
# Protocol: The optimal ratio of (peptide):(anionic substance) for complex formation, was determined in section 3 above to lie in the range of 8:1 to 13:1 by titrating a fixed concentration of the anionic substance with increasing amounts of the peptide, and monitoring complex formation by electrophoresis of the mixture. To further validate and possibly narrow down the optimum ratio of peptide/anionic substance, an assay with a functional readout was performed. HCT116 cells were incubated with siRNA complexes as described above at concentrations such that the amount of siRNA in the incubation mixture corresponds to a 250 nM concentration of the siRNA, and the peptide/siRNA ratio was 8:1, 10:1, 12:1, or 14:1.
# [2] = siRNA AD-8724 250 nM, molar peptide/siRNA ratio 12.5:1
# [3] = AD-8724, siRNA/peptide conc. 25 nM/250 nM
# [4] = AD-8724, siRNA/peptide conc. 250 nM/2.5 μM
# [5] = AD-8724, siRNA/peptide conc. 1 μM/10 μM
sequence,measurement,setting,value
GAFRAAARLLRSLWRLLLRA [AP-23],remaining E6AP mRNA (in % of mock),[1]; [2],82 ± 6%
HLFRALHRLLRHLWRLLHRA [AP-12],remaining E6AP mRNA (in % of mock),[1]; [2],94 ± 31%
RLFRALLRLLRRLWRLLRRA [AP-7],remaining E6AP mRNA (in % of mock),[1]; [2],134 ± 19%
GAFRAAARLLRSLWRALLRA [AP-24],remaining E6AP mRNA (in % of mock),[1]; [2],91 ± 16%
GLFRALLRLLRRLWRLLLRA [AP-3],remaining E6AP mRNA (in % of mock),[1]; [2],43 ± 7%
same,Remaining eGFP-mRNA in % of mock-transfected controls,eGFP-mRNA; peptide/siRNA ratio 8:1,39 ± 10%
same,Remaining eGFP-mRNA in % of mock-transfected controls,eGFP-mRNA; peptide/siRNA ratio 10:1,32 ± 4%
same,Remaining eGFP-mRNA in % of mock-transfected controls,eGFP-mRNA; peptide/siRNA ratio 12:1,40 ± 5%
same,Remaining eGFP-mRNA in % of mock-transfected controls,eGFP-mRNA; peptide/siRNA ratio 14:1,40 ± 8%
GLYRALLRLLRSLWRLLLRA [AP-19],remaining E6AP mRNA (in % of mock),[1]; [2],27 ± 9%
HLFRALLRLLRHLWRLLLRAHHHHH [AP-29],remaining E6AP mRNA (in % of mock),[1]; [3],58 ± 8%
same,remaining E6AP mRNA (in % of mock),[1]; [4],16 ± 2%
same,remaining E6AP mRNA (in % of mock),[1]; [5],11 ± 1%
HLFRALRRLLRHLWRLLRRA [AP-13],remaining E6AP mRNA (in % of mock),[1]; [2],59 ± 7%
GLYRALLRLLRSLWRLLSRA [AP-20],remaining E6AP mRNA (in % of mock),[1]; [2],45 ± 6%
HLFRALLRLLRSLWRLLHRA [AP-9],remaining E6AP mRNA (in % of mock),[1]; [2],53 ± 17%
same,Remaining eGFP-mRNA in % of mock-transfected controls,eGFP-mRNA; peptide/siRNA ratio 8:1,38 ± 6%
same,Remaining eGFP-mRNA in % of mock-transfected controls,eGFP-mRNA; peptide/siRNA ratio 10:1,31 ± 3%
same,Remaining eGFP-mRNA in % of mock-transfected controls,eGFP-mRNA; peptide/siRNA ratio 12:1,22 ± 1%
same,Remaining eGFP-mRNA in % of mock-transfected controls,eGFP-mRNA; peptide/siRNA ratio 14:1,36 ± 7%
GLFRALLRLLRSLWRLLSRA [AP-16],remaining E6AP mRNA (in % of mock),[1]; [2],43 ± 13%
GAYRAALRLLRSLWRLLSRA [AP-26],remaining E6AP mRNA (in % of mock),[1]; [2],78 ± 6%
GLFRALLRLLRSLWRSLSRA [AP-18],remaining E6AP mRNA (in % of mock),[1]; [2],49 ± 3%
GLFRALARALRSLWRALARA [AP-25],remaining E6AP mRNA (in % of mock),[1]; [2],83 ± 5%
HLFRHLLRLLRHLWRHLLRA [AP-15],remaining E6AP mRNA (in % of mock),[1]; [2],77 ± 39%
same,Remaining eGFP-mRNA in % of mock-transfected controls,eGFP-mRNA; peptide/siRNA ratio 8:1,32 ± 5%
same,Remaining eGFP-mRNA in % of mock-transfected controls,eGFP-mRNA; peptide/siRNA ratio 10:1,26 + 2%
same,Remaining eGFP-mRNA in % of mock-transfected controls,eGFP-mRNA; peptide/siRNA ratio 12:1,22 ± 4%
same,Remaining eGFP-mRNA in % of mock-transfected controls,eGFP-mRNA; peptide/siRNA ratio 14:1,43 ± 5%
RLFRALRRLLRRLWRLLRRA [AP-8],remaining E6AP mRNA (in % of mock),[1]; [2],170 ± 44%
GLFRALRRLLRSLWRLLRRA [AP-5],remaining E6AP mRNA (in % of mock),[1]; [2],108 ± 47%
GLFRALLRLLRSLWRLLRRA [AP-2],remaining E6AP mRNA (in % of mock),[1]; [2],58 ± 7%
same,Remaining eGFP-mRNA in % of mock-transfected controls,eGFP-mRNA; peptide/siRNA ratio 8:1,54 ± 6%
same,Remaining eGFP-mRNA in % of mock-transfected controls,eGFP-mRNA; peptide/siRNA ratio 10:1,35 ± 15%
same,Remaining eGFP-mRNA in % of mock-transfected controls,eGFP-mRNA; peptide/siRNA ratio 12:1,32 ± 11%
same,Remaining eGFP-mRNA in % of mock-transfected controls,eGFP-mRNA; peptide/siRNA ratio 14:1,36 ± 7%
GLFRALLRLLRSLWRALARA [AP-22],remaining E6AP mRNA (in % of mock),[1]; [2],32 ± 14%
HLFRHLLRLLRRLWHLLHRA [AP-14],remaining E6AP mRNA (in % of mock),[1]; [2],56 ± 21%
same,Remaining eGFP-mRNA in % of mock-transfected controls,eGFP-mRNA; peptide/siRNA ratio 8:1,41 ± 2%
same,Remaining eGFP-mRNA in % of mock-transfected controls,eGFP-mRNA; peptide/siRNA ratio 10:1,41 ± 12%
same,Remaining eGFP-mRNA in % of mock-transfected controls,eGFP-mRNA; peptide/siRNA ratio 12:1,19 ± 2%
same,Remaining eGFP-mRNA in % of mock-transfected controls,eGFP-mRNA; peptide/siRNA ratio 14:1,39 ± 7%
HLFRALLRLLRHLWRLLHRA [AP-11],remaining E6AP mRNA (in % of mock),[1]; [2],62 ± 15%
same,Remaining eGFP-mRNA in % of mock-transfected controls,eGFP-mRNA; peptide/siRNA ratio 8:1,27 ± 5%
same,Remaining eGFP-mRNA in % of mock-transfected controls,eGFP-mRNA; peptide/siRNA ratio 10:1,30 ± 8%
same,Remaining eGFP-mRNA in % of mock-transfected controls,eGFP-mRNA; peptide/siRNA ratio 12:1,30 ± 5%
same,Remaining eGFP-mRNA in % of mock-transfected controls,eGFP-mRNA; peptide/siRNA ratio 14:1,24 ± 5%
GLFRALLRLLRSLWRSLLRA [AP-17],remaining E6AP mRNA (in % of mock),[1]; [2],37 ± 9%
GAFRAALRLLRSLWRLLLRA [AP-21],remaining E6AP mRNA (in % of mock),[1]; [2],53 ± 32%
RLFPALLRLLRRLWRLLLRA [AP-6],remaining E6AP mRNA (in % of mock),[1]; [2],41 ± 11%
same,Remaining eGFP-mRNA in % of mock-transfected controls,eGFP-mRNA; peptide/siRNA ratio 8:1,62 ± 9%
same,Remaining eGFP-mRNA in % of mock-transfected controls,eGFP-mRNA; peptide/siRNA ratio 10:1,36 ± 8%
same,Remaining eGFP-mRNA in % of mock-transfected controls,eGFP-mRNA; peptide/siRNA ratio 12:1,63 ± 18%
same,Remaining eGFP-mRNA in % of mock-transfected controls,eGFP-mRNA; peptide/siRNA ratio 14:1,54 ± 9%
RLFRALLRLLRSLWRLLRRAHHHHH [AP-28],remaining E6AP mRNA (in % of mock),[1]; [3],105 ± 13%
same,remaining E6AP mRNA (in % of mock),[1]; [4],30 ± 9%
same,remaining E6AP mRNA (in % of mock),[1]; [5],18 ± 2%
